Source: patent US4352799A, “2-Phenyl-1,2-benzisoselenazol-3(2H)-one containing pharmaceutical preparations and process for the treatment of rheumatic diseases” (A. Nattermann & Cie GmbH, priority 1980, dated 1982)

How the values were obtained:
[1] = test system: arthritis caused by Freud adjuvans (pad volume); assay: Adjunct-Arthritis (C. M. PEARSON); assay type: in vivo, rat (wistar)
Experimental: There are used 10 wistar rats each weighing 120 to 150 g. per each dose. The same number of animals is used as control group. An arthritis is caused by subplantar injection of 0.5 ml. of Freud adjuvans. The test duration is 17 days. At the beginning of the test the volume of the pads of all for legs is determined as starting value. The volume is further determined on the 8th, 14th and 17th day of the test. In the evaluation, the difference between the pad volume at the beginning and at the end of the test is determined both in the test group as well as in the control group. The test result, i.e. the inhibition of the growth of the pad volume is expressed in percent.

[2] = Toxicity in rats, p.o.
[3] = test system: granuloma in the connective tissue; assay: Granuloma test (cotton-pellet-test) according to R. MEIER; assay type: in vivo, rat
Excerpt: In this test, cotton pellets impregnated with crotone oil are implanted subcutaneously into the test animals (rats) which impregnated cotton pellets cause the formation of granuloma in the connective tissue. After killing of the test animals, the granuloma are separated and recovered and are weighed as wet or dry tissue. The anti-proliferatic activity of an antiphlogistic agent is expressed in a lower granuloma weight in comparison to untreated control animals.

[4] = test system: arthritis caused by Freud adjuvans (pad volume); assay: Adjunct-Arthritis (C. M. PEARSON); assay type: in vivo, rat (wistar); settings: 7th day p.i.
[5] = Toxicity in mice, p.o.
[6] = test system: edema in hindpads of rats; assay: rat pad edema test (HILLEBRECHT, Carragenine); assay type: in vivo; settings: 3 hours
Experimental: The antiphlogistic properties are determined in the rat pad edema test according to HILLEBRECHT (J. HILLEBRECHT, Arzneim. Forsch. 1954, vol. 4, p. 607). In this test, the formation of an edema is caused in one of the hindpads of rats weighing each 200 to 250 grams, by subplantar injection of Carragenine (0.5% in 0.9% NaCl solution) in an amount of 0.1 ml. solution per each pad. After administration of the test compound in an amount which in general should not be larger than a volume of 10 ml. per kg. body weight, the volume of the pad is determined in an overflow. 3 hours after administration of the test compound the final volume is determined. The test is carried out with 10 test animals and 10 control animals of one sex per each dose and is repeated with the same number of animals of the other sex. For evaluation purposes the percent inhibition of edema formation is determined over the control group.

[7] = test system: ulcus formation of the stomach; assay: Ulcus test; assay type: in vivo, rat (wistar); settings: 3.5 hours
Experimental: The determination of ulcus formation is carried out according to W. J. R. WHITTLE, Brit.J.Pharmacology 1975, vol. 55, pgs. 242 to 243; L. MARIANI, Europ. J. Toxicol. Eviron, 1975, vol. 8, pgs. 335 to 339; R. MENGUY and L. DESBAILLETS, Proc.Soc.Exp.Bio., vol. 125, p. 1108. In this test, 10 female and 10 male wistar rats are used each weighing 120 to 150 g. and which had been fed only with […] for 2 days and were kept thereafter without feeding for 16 hours. The formation of a bleeding ulcus of the stomach was provocated by oral application of the compound to be tested. 3.5 hours after administration the test animals were killed, the stomach was separated, opened along the large curvature and fixed to a polystyrol plate. There is determined the number and size of average ulcus formation both in the test group and in the control group.

[8] = 0.1 mg./kg. p.o., 14th day p.i.
[9] = 0.1 mg./kg. p.o., 17th day p.i.

O=c1c2ccccc2[se]n1-c1ccccc1 [2-Phenyl-1.2-benzisoselenazol-3(2H)-one, 2-phenyl-1.2-benzisoselenazol-3(2H)-one]
inhibitory effect (growth of pad volume) [1, 8]: -10%
inhibitory effect (growth of pad volume) [1, 9]: -13%
inhibitory effect (growth of pad volume) ([1]; 1 mg./kg. p.o., 14th day p.i.): -36%
inhibitory effect (growth of pad volume) ([1]; 1 mg./kg. p.o., 17th day p.i.): -33%
inhibitory effect (growth of pad volume) ([1]; 10 mg./kg. p.o., 14th day p.i.): -22%
inhibitory effect (growth of pad volume) ([1]; 10 mg./kg. p.o., 17th day p.i.): -24%
toxicity effects ([1]; at higher doses, p.o.): no toxicity effects occur
mortality ([2]; rat, in vivo, po, 4600 mg/kg): 0%
dose at lethality 0% ([2]; rats, p.o.): 4,600 mg./kg.
Decrease of granuloma weight ([3]; 0.1 mg./kg. p.o.): -22%
Decrease of granuloma weight ([3]; 1 mg./kg. p.o.): -21%
Decrease of granuloma weight ([3]; 10 mg./kg. p.o.): -20%
inhibitory effect (growth of pad volume) ([4]; 0.1 mg./kg. p.o.): -22%
inhibitory effect (growth of pad volume) ([4]; 1 mg./kg. p.o.): -46%
inhibitory effect (growth of pad volume) ([4]; 10 mg./kg. p.o.): -30%
dose at lethality 0% ([5]; mice, p.o.): > 2,150 mg./Kg.
mortality ([5]; mouse, in vivo, po, 2150 mg/kg): 0%
Edema inhibition, inhibitory effect ([6]; 0.1 mg./kg. i.m.): -23%
Edema inhibition, inhibitory effect ([6]; 0.1 mg./kg. p.o.): -1%
Edema inhibition, inhibitory effect ([6]; 1.0 mg./kg. i.m.): -62%
Edema inhibition, inhibitory effect ([6]; 1.0 mg./kg. p.o.): -57%
Edema inhibition, inhibitory effect ([6]; 10 mg./kg. i.m.): -35%
Edema inhibition, inhibitory effect ([6]; 10 mg./kg. p.o.): -40%
Ulcus formation, effectiveness ([7]; 1 mg./kg. p.o.): 0
Ulcus formation, effectiveness ([7]; 10 mg./kg. p.o.): 0
Ulcus formation, effectiveness ([7]; 100 mg./kg. p.o.): 0

COc1ccc2c(c1)c(CC(=O)O)c(C)n2C(=O)c1ccc(Cl)cc1 [Indometacin, reference compound]
inhibitory effect (growth of pad volume) [1, 8]: -25%
inhibitory effect (growth of pad volume) [1, 9]: -37%
inhibitory effect (growth of pad volume) ([1]; 1 mg./kg. p.o., 14th day p.i.): -40%
inhibitory effect (growth of pad volume) ([1]; 1 mg./kg. p.o., 17th day p.i.): -40%
lethality given in place of inhibitory effect ([1]; 10 mg./kg. p.o., 14th day p.i.): lethal
lethality given in place of inhibitory effect ([1]; 10 mg./kg. p.o., 17th day p.i.): lethal
LD50 ([2]; rat, in vivo, po): 38 mg/kg
mortality ([2]; rat, in vivo, po, 38 mg/kg): 50%
Decrease of granuloma weight ([3]; 1 mg./kg. p.o.): -21%
Decrease of granuloma weight ([3]; 3.2 mg./kg. p.o.): -7%
Decrease of granuloma weight ([3]; 5.6 mg./kg. p.o.): -6%
inhibitory effect (growth of pad volume) ([4]; 0.1 mg./kg. p.o.): -32%
inhibitory effect (growth of pad volume) ([4]; 1 mg./kg. p.o.): -50%
lethality given in place of inhibitory effect ([4]; 10 mg./kg. p.o.): lethal
LD50 ([5]; mouse, in vivo, po): 19 mg/kg
mortality ([5]; mouse, in vivo, po, 19 mg/kg): 50%
Edema inhibition, inhibitory effect ([6]; 1.0 mg./kg. i.m.): -9%
Edema inhibition, inhibitory effect ([6]; 3 mg./kg. i.m.): -23%
Edema inhibition, inhibitory effect ([6]; 3.8 mg./kg. p.o.): -26%
Edema inhibition, inhibitory effect ([6]; 5.6 mg./kg. p.o.): -45%
Edema inhibition, inhibitory effect ([6]; 8.3 mg./kg. p.o.): -57%
Edema inhibition, inhibitory effect ([6]; 10 mg./kg. i.m.): -33%
